Data set [1] concerns human B2 receptor. The conditions noted are these: cited from earlier work.
Data set [2] is described as follows: in vitro. It is filed as in vitro ADME. Particulars: human; for half-life at 100 nM: plasma. As for the experimental part:
(§1) Venous blood was collected without contact with glass in plastic blood collection tubes with 0.11 M sodium citrate (BD Vacutainer Plus, BD Biosciences, Franklin Lake, NJ); the plasma was obtained by centrifugation (1,300 g, 20 min, room temperature), stored at −80°C until use and/or expedition on dry ice to Quebec City. The in vitro activation of plasma at 37°C (200 μl per experimental point sample) was performed precisely as described ([21]) in the presence of enalaprilat (final concentration 130 nM) to reduce the breakdown of BK. The samples were incubated for up to 120 min under rotary agitation (300 rpm) without any added stimulant or with recombinant human tissue kallikrein (KLK-1, 10 nM; gift from DiaMedica, Inc.), with the particulate contact system activator Pacific Hemostasis Kontact-APTT™ (2% v/v; used without the calcium supplement; composed mainly of magnesium aluminum silica and rabbit brain phospholipid; ThermoFisher Scientific) or with recombinant tissue plasminogen activator (tPA, 169 nM; Cathflo, Roche). The tPA concentration was reproduced from Molinaro et al. ([19]) and within the range reached in plasma during therapeutic fibrinolysis. Biotechnological inhibitors used in the mechanistic analysis of iBK formation were previously exploited ([20], [21]) and are listed in Table 2.
An additional set of experiments aimed at measuring the rate of BK breakdown in the presence or absence of the ACE inhibitor enalaprilat or in plasma from selected human subjects: synthetic BK (100 nM) was added to 200 μl of plasma from healthy volunteers or HAE-nC1-INH patients and incubated at 37°C under agitation for 0–20 min.
In all experiments dealing with BK EIA, the reactions were stopped by adding 1 ml of cold ethanol, as described ([21]). After further incubation on ice-water for an additional period of at least 60 min, the plasma/ethanol mixtures were cleared of precipitated proteins by centrifugation (13,000 g, 1 min), evaporated to dryness (Speed Vac apparatus) and stored at −80°C until used for BK determination. Then, the samples were reconstituted with 200 μl of distilled water, further diluted 100-fold (1,000-fold for selected samples) with the supplied EIA buffer and directly applied in duplicate to the BK EIA as recommended by the manufacturer (Phoenix Pharmaceuticals, Burlingame, CA; cat. no. EK-009-01; 96-well plate format). The BK EIA is fully cross-reactive with Lys-BK, but not at all with des-Arg^9-BK or Lys-des-Arg^9-BK.
Numerical values are reported as means ± standard errors of the mean (S.E.M.). Sets of values were compared with Kruskall-Wallis test (non-parametric ANOVA) followed by Dunn's multiple comparison test to compare selected pairs of values. Pairs of values were compared using Mann-Whitney test (Prism 5.0, GraphPad Software Inc., San Diego, CA). The half-life (t1/2) of iBK was calculated as the first order decay procedure in a software suite ([30]).

For data set [3] the following is noted: cited from earlier work. The source says: ACE blockade greatly increases BK persistence and pharmacological effect in human whole blood under a variety of in vitro stimulation conditions ([20]). Membrane-bound ACE produced by vascular endothelial cells is shed in an apparently regulated manner into blood plasma ([34]), allowing the use of blood/plasma/serum to monitor ACE activity in human subjects.

The test system of data set [4] is human B1 receptor. The conditions noted are these: cited from earlier work. From the text: In the plasminogen sequence, the residue 330 is not proximal to a physiological cleavage site or to the catalytic site: it is rather located within a potential adhesion site in the kringle 3 domain of the molecule ([5]). However, the K330E variant is associated with a distinct N-glysosylation pattern and an increased susceptibility to activation by urokinase-type plasminogen activator (uPA), but not by tPA (assessed only using a chromogenic substrate) ([41]). […] If uP ...

The nature of data set [5]: Blood pressure of healthy volunteers taking enalapril maleate. It is filed as in vivo, human. The conditions noted are these: two normotensive healthy volunteers, 2 daily doses of enalapril maleate 10 mg (Figure S1). The protocol: We previously reported that iBK formation was negligible in either whole blood or plasma incubated at 37°C without stimulus both in healthy donors and HAE patients sampled during remission (HAE-C1-INH type I or II) ([20], [21]). This may be paradoxical because HK is spontaneously and progressively cleaved in the blood of patients with HAE-C1-INH ([15], [16]) or HAE-nC1-INH ([17]). A possible explanation is the efficient clearance of kinins.

Data set [6] has as its system angiotensin converting enzyme (ACE). Nature of the data set: Effect of oral enalapril maleate on ex vivo BK half-life in plasma of healthy volunteers. More on the design: species or system human. Particulars: 2 daily oral doses of enalapril maleate 10 mg, healthy volunteers (two), plasma 24 h after the last dose vs before dosing.
Procedure: Numerical values are reported as means ± standard errors of the mean (S.E.M.). […] The half-life (t1/2) of iBK was calculated as the first order decay procedure in a software suite ([30]).
Data set [7] relates to iBK generation induced by Kontact-APTT. Nature of the data set: Kontact-APTT-induced iBK generation in plasma from HAE-FXII (T328K) patients, effect of biotechnological inhibitors. The conditions noted are these: Kontact-APTT 2% v/v, 5 min incubation, enalaprilat 130 nM present, inhibitor added 5 min before stimulus, 37°C, EIA. It is filed as biochemical, human. As for the experimental part: as §1, with “2. […]” for “2.”

For data set [8], the system named is KLK-1-induced iBK formation. Nature of the data set: KLK-1-induced iBK formation in plasma from HAE-PLG patients, effect of lanadelumab. It is filed as biochemical, human. Particulars: KLK-1 10 nM, 5 min incubation, inhibitor added 5 min before KLK-1, enalaprilat 130 nM present, EIA. As for the experimental part: as §1, with “2. […]” for “2.”
For data set [9], the system named is iBK generation induced by tPA. Nature of the data set: tPA-induced iBK generation in plasma from HAE-FXII (T328K) patients, effect of biotechnological inhibitors. It is filed as biochemical, human. The conditions noted are these: tPA 169 nM, 20 min incubation, enalaprilat 130 nM present, inhibitor added 5 min before stimulus, 37°C, EIA. The protocol:
as §1, with “2. […]” for “2.”

Values joined by “and” are separate entries in the source; they are usually repeats but may differ in a detail not shown here. Equal values may be shown once. “Also recorded” adds a separate entry of the source. Where a name gives a salt, the structure may show the parent alone. Residues, ends and D or L forms follow the SMILES beside them.

“Lys-BK: kinin formed by KLK-1 mainly from low molecular weight kininogen; direct B2 receptor agonist”: the “potency relative to BK at the human B2 receptor” value in data set [1] is reported as “approximately equipotent”.
For orientation: half-life means the time in which the quantity being followed falls by half. High values mean slow loss, low ones fast loss. With `NC(N)=NCCC[C@H](NC(=O)[C@H](Cc1ccccc1)NC(=O)[C@@H]1CCCN1C(=O)[C@H](CO)NC(=O)[C@H](Cc1ccccc1)NC(=O)CNC(=O)[C@@H]1CCCN1C(=O)[C@@H]1CCCN1C(=O)[C@@H](N)CCCN=C(N)N)C(=O)O` [BK, Bradykinin] (H-RPPGFSPFR-OH), the half-life at 100 nM in data set [2] (female, BK t1/2 in plasma of family d (HAE-nC1-INH, unknown cause)) is 22.5 s; in data set [2] (BK t1/2 in plasma 24 h after 2nd oral dose of enalapril maleate), 190 s; in data set [2] (BK t1/2 in plasma before dosing (baseline)), 39.5 s; in data set [2] (half-life (t1/2) of BK in normal plasma) it was 34 s; in data set [2] (half-life (t1/2) of BK in plasma with ACE blocked by enalaprilat) it was 426 s. Besides, the “half-life (t1/2) of BK in normal plasma” value in data set [2] is 33 s. Further, in [3], the “t1/2 of BK in serum” value is on record as 27 s.
des-Arg^9-BK: the “affinity for the human form of the B1 receptor” value in [4] is recorded as “low affinity”. In addition, in data set [3], the “change of half-life of synthetic des-Arg9-BK when ACE is blocked” value is on record as “doubled”.
`CCOC(=O)[C@H](CCc1ccccc1)N[C@@H](C)C(=O)N1CCC[C@H]1C(=O)O` [enalapril maleate]: in [5], the “blood pressure change during the experiment” value is recorded as “slight reversible drop”. Besides, in data set [6], the “fold increase of BK t1/2 in plasma after oral dosing” value was ~ 5 fold and 4.8 fold.
As to Lys-des-Arg^9-BK, the “agonist status at the human B1 receptor” value in data set [4] is “optimal agonist”.

B1: lanadelumab: Human monoclonal antibody, target plasma kallikrein (antibody, chains of the INN, looked up, V domains shown)
VH: EVQLLESGGGLVQPGGSLRLSCAASGFTFSHYIMMWVRQAPGKGLEWVSGIYSSGGITVYADSVKGRFTISRDNSKNTLYLQMNSLRAEDTAVYYCAYRRIGVPRRDEFDIWGQGTMVTVSS
VL: DIQMTQSPSTLSASVGDRVTITCRASQSISSWLAWYQQKPGKAPKLLIYKASTLESGVPSRFSGSGSGTEFTLTISSLQPDDFATYYCQQYNTYWTFGQGTKVEIK
For B1, in [7], the “effect on early iBK response to Kontact-APTT” value is reported as “significantly decreased”. Further, the “effect on KLK-1-induced iBK formation” value in data set [8] is recorded as “not decreased; also recorded: Lack of effect; also recorded: did not inhibit”. Also, the “effect on early iBK release induced by tPA” value in data set [9] is “significantly decreased; also recorded: suppressed”.

These data come from paper PMC7380097, “Measurement of Bradykinin Formation and Degradation in Blood Plasma: Relevance for Acquired Angioedema Associated With Angiotensin Converting Enzyme Inhibition and for Hereditary Angioedema Due to Factor XII or Plasminogen Gene Variants” (Frontiers in Medicine, 2020).
